US20050153870A1, “Medicinal composition for diagnosis, prevention, or therapy of multiple risk factor syndrome” (priority 2002, published 2005)

Tested on: non-insulin dependent type II diabetes patients
Assay: Clinical test II
Assay type: in vivo, human
Details: for Fasting blood sugar, change vs before medication / Fasting blood sugar: Normal blood sugar group FBS < 130 mg/dl; for Fasting blood sugar: before medication 108.8 ± 15.10; for number of patients with fasting blood sugar level No change or increase / number of patients with reduction rate of fasting blood sugar level 20-10% / number of patients with reduction rate of fasting blood sugar level <10% / number of patients with reduction rate of fasting blood sugar level >20% / number of patients with total serum cholesterol No change or increase / number of patients with total serum cholesterol decreasing rate 20-10% / number of patients with total serum cholesterol decreasing rate <10% / number of patients with total serum cholesterol decreasing rate >20%: 12 weeks
Procedure: On the other hand, Clinical test II was performed in a group of 79 participants from non-insulin dependent diabetic patients.
79 non-insulin dependent type II diabetes patients whose blood sugar is well-controlled under dietary therapy (all were mongoloid Japanese) participated in Clinical test II. They were forbidden to use sulfonyl urea and biguanide agent which is a therapeutic agent for type II diabetes, and a fibrate series medicament, nicotinic acid, and probucol which is a serum fat decreasing agent; however use of an antihypertensive agent is not particularly prohibited. They participated on a voluntary basis after they signed informed consent for clinical test participation, which was proposed by a medical institution based on the Helsinki declaration. The participants consisted of 26 males and 53 females. An average age at the sign-up time was 58±9.9 years old (average value±standard deviation), ranging from 37 to 81 years old. The body weight of patients was divided by standard body weight obtained from the standard body-weight table issued by Meiji life Insurance Company. This index was 1.24±0.154 (average value±standard deviation) at the sign-up time, meaning that there are many obese persons. After 12 weeks, the body weight index decreased to 1.18±0.137(average value±standard deviation).
The number of patients having normal blood pressure was 58 (of them, 31 patients were taking an antihypertensive agent).

[1] = body weight fluctuation: No change or increase (total 29)
[2] = body weight fluctuation: No change or increase (total 31)
[3] = body weight fluctuation: Reduction of 3 kg or less (total 24)
[4] = body weight fluctuation: Reduction of 3 kg or less (total 25)
[5] = body weight fluctuation: Reduction of 3 kg or more (total 13)
[6] = body weight fluctuation: Reduction of 3 kg or more (total 18)

## COc1c(Cl)c(C)c(C=O)c(O)c1C/C=C(C)/C=C/[C@@]1(C)[C@H](C)CCC(=O)[C@@H]1C [4-O-methylascochlorin]
8th week
  Fasting blood sugar, change vs before medication: ns (n = 25)
  Fasting blood sugar: 109.0 ± 17.34 mg/dL
12th week
  Fasting blood sugar, change vs before medication: ns (n = 25)
  Fasting blood sugar: 106.4 ± 17.80 mg/dL
Normal group <220 mg/dl, 4th week, before medication 188.9 ± 21.55
  Total serum cholesterol: 177.9 ± 31.91 mg/dL
Normal group <220 mg/dl, 4th week, ns. = No significant difference
  Total serum cholesterol, change vs before medication: ns. (n = 14)
Normal group <220 mg/dl, 8th week, before medication 188.9 ± 21.55
  Total serum cholesterol: 176.0 ± 36.33 mg/dL
Normal group <220 mg/dl, 8th week, ns. = No significant difference
  Total serum cholesterol, change vs before medication: ns. (n = 14)
Normal group <220 mg/dl, 12th week, before medication 188.9 ± 21.55
  Total serum cholesterol: 181.2 ± 32.10 mg/dL
Normal group <220 mg/dl, 12th week, ns. = No significant difference
  Total serum cholesterol, change vs before medication: ns. (n = 18)
Super high cholesterol group >300 mg/dl, 4th week
  Total serum cholesterol, change vs before medication: −20.0% (n = 20)
Super high cholesterol group >300 mg/dl, 4th week, before medication 348.8 ± 56.36
  Total serum cholesterol: 273.8 ± 29.38 mg/dL
Super high cholesterol group >300 mg/dl, 8th week
  Total serum cholesterol, change vs before medication: −28.9% (n = 20)
Super high cholesterol group >300 mg/dl, 8th week, before medication 348.8 ± 56.36
  Total serum cholesterol: 248.5 ± 36.01 mg/dL
Super high cholesterol group >300 mg/dl, 12th week
  Total serum cholesterol, change vs before medication: −30.0% (n = 21)
Super high cholesterol group >300 mg/dl, 12th week, before medication 348.8 ± 56.36
  Total serum cholesterol: 244.2 ± 36.59 mg/dL
Abnormal high value group, greater than 120 mg/dl
  Serum neutral fat: significantly decreased
After 12 weeks, at the sign-up time 1.24±0.154
  body weight index (body weight divided by standard body weight): 1.18±0.137
[1]
  number of patients with fasting blood sugar level No change or increase: 11
  number of patients with reduction rate of fasting blood sugar level 20-10%: 8
  number of patients with reduction rate of fasting blood sugar level <10%: 7
  number of patients with reduction rate of fasting blood sugar level >20%: 3
[2]
  number of patients with total serum cholesterol No change or increase: 11
  number of patients with total serum cholesterol decreasing rate 20-10%: 6
  number of patients with total serum cholesterol decreasing rate <10%: 5
  number of patients with total serum cholesterol decreasing rate >20%: 9
[3]
  number of patients with fasting blood sugar level No change or increase: 4
  number of patients with reduction rate of fasting blood sugar level 20-10%: 8
  number of patients with reduction rate of fasting blood sugar level <10%: 6
  number of patients with reduction rate of fasting blood sugar level >20%: 6
[4]
  number of patients with total serum cholesterol No change or increase: 4
  number of patients with total serum cholesterol decreasing rate 20-10%: 2
  number of patients with total serum cholesterol decreasing rate <10%: 1
  number of patients with total serum cholesterol decreasing rate >20%: 18
[5]
  number of patients with total serum cholesterol No change or increase: 1
  number of patients with total serum cholesterol decreasing rate 20-10%: 0
  number of patients with total serum cholesterol decreasing rate <10%: 1
  number of patients with total serum cholesterol decreasing rate >20%: 11
[6]
  number of patients with fasting blood sugar level No change or increase: 3
  number of patients with reduction rate of fasting blood sugar level 20-10%: 3
  number of patients with reduction rate of fasting blood sugar level <10%: 4
  number of patients with reduction rate of fasting blood sugar level >20%: 8
Borderline hypertensive patients (n = 14), 4th week, before medication 92 ± 3.0
  Blood pressure, Diastolic period: 86 ± 2.4 mmHg
Borderline hypertensive patients (n = 14), 4th week, before medication 156 ± 5.4
  Blood pressure, Systolic period: 149 ± 3.8 mmHg
Borderline hypertensive patients (n = 14), 8th week, before medication 92 ± 3.0
  Blood pressure, Diastolic period: 86 ± 3.3 mmHg
Borderline hypertensive patients (n = 14), 8th week, before medication 156 ± 5.4
  Blood pressure, Systolic period: 147 ± 3.3 mmHg
Borderline hypertensive patients (n = 14), 12th week, before medication 92 ± 3.0
  Blood pressure, Diastolic period: 86 ± 4.1 mmHg
Borderline hypertensive patients (n = 14), 12th week, before medication 156 ± 5.4
  Blood pressure, Systolic period: 149 ± 5.5 mmHg
Group having a fasting blood sugar level of greater than 130 mg/dl
  blood sugar decreasing effect: has a significant blood sugar decreasing effect
Group with serum neutral fat <120 mg/dl, 4th week
  Serum neutral fat, change vs before medication: −9.3% (n = 6)
Group with serum neutral fat <120 mg/dl, 4th week, before medication 96.2 ± 12.57
  Serum neutral fat: 88.5 ± 32.93 mg/dL
Group with serum neutral fat <120 mg/dl, 8th week
  Serum neutral fat, change vs before medication: −15.7% (n = 7)
Group with serum neutral fat <120 mg/dl, 8th week, before medication 96.2 ± 12.57
  Serum neutral fat: 85.7 ± 24.64 mg/dL
Group with serum neutral fat <120 mg/dl, 12th week
  Serum neutral fat, change vs before medication: −5.2% (n = 8)
Group with serum neutral fat <120 mg/dl, 12th week, before medication 96.2 ± 12.57
  Serum neutral fat: 90.3 ± 22.32 mg/dL
Group with serum neutral fat >120 mg/dl, 4th week
  Serum neutral fat, change vs before medication: −15.5% (n = 56)
Group with serum neutral fat >120 mg/dl, 4th week, before medication 215.7 ± 83.96
  Serum neutral fat: 182.6 ± 68.26 mg/dL
Group with serum neutral fat >120 mg/dl, 8th week
  Serum neutral fat, change vs before medication: −23.2% (n = 52)
Group with serum neutral fat >120 mg/dl, 8th week, before medication 215.7 ± 83.96
  Serum neutral fat: 172.7 ± 62.84 mg/dL
Group with serum neutral fat >120 mg/dl, 12th week
  Serum neutral fat, change vs before medication: −25.4% (n = 61)
Group with serum neutral fat >120 mg/dl, 12th week, before medication 215.7 ± 83.96
  Serum neutral fat: 167.8 ± 72.93 mg/dL
Hypertension group, 4 weeks after medication, text: no significant difference
  decrease of systolic pressure: 10 mmHg
Hypertensive patients (n = 7), 4th week, before medication 97 ± 3.0
  Blood pressure, Diastolic period: 91 ± 3.0 mmHg
Hypertensive patients (n = 7), 4th week, before medication 175 ± 10.4
  Blood pressure, Systolic period: 165 ± 15.6 mmHg
Hypertensive patients (n = 7), 8th week, before medication 97 ± 3.0
  Blood pressure, Diastolic period: 90 ± 5.1 mmHg
Hypertensive patients (n = 7), 8th week, before medication 175 ± 10.4
  Blood pressure, Systolic period: 161 ± 13.9 mmHg
Hypertensive patients (n = 7), 12th week, before medication 97 ± 3.0
  Blood pressure, Diastolic period: 89 ± 4.0 mmHg
Hypertensive patients (n = 7), 12th week, before medication 175 ± 10.4
  Blood pressure, Systolic period: 158 ± 15.7 mmHg
Normal blood sugar group, fasting blood sugar level of 130 mg/dl or less
  blood sugar decreasing effect: does not have a blood sugar decreasing effect
Normal group, serum total cholesterol 220 mg/dl or less
  concentration of serum cholesterol: did not change the concentration of serum cholesterol significantly
Normal value group, 120 mg/dl or less
  Serum neutral fat: only a tendency to decrease
Patients of type II diabetes complicated with borderline hypertensive
  antihypertensive effect: highly significant antihypertensive effect
Super high value group and high value group
  total cholesterol values: further significantly decreased
